# Test results: patent US9371292B2, “Quinazoline derivative, preparation method therefor, intermediate, composition and application thereof” (SHANGHAI PHARMACEUTICALS HOLDINGS CO., LTD., priority 2011, dated 2016)
# Assays:
# [1] = test system: NCI-H1975 L858R T790M cell; assay: Proliferation inhibition, H1975 cells (CellTiter-Glo); format: cell-based; settings: Homo sapiens, 48 hours
# Experimental: (§1) This example is to determine the proliferation inhibitory activity against wide type of high expression cell lines A431 of EGFR and mutant cell lines NCI-H1975^L858RT790M, the proliferation inhibitory activity in cell-based level of compound is expressed by IC50. The test method is as follows: both cell lines are purchased from American type culture collection (ATCC). The cells are seeded in a white and opaque 384-well culture plate with a proper concentration (A431: 20000 cells/ml medium; H1975: 15000 cells/ml medium), cultured at 37° C. with 5% CO2 for 24 hrs, a series of medicine with gradient concentration is added, generally 10 concentrations, cultured for another 48 hours under the previous conditions. The assays of the proliferation inhibitory activity against the A431 and H1975 cell of the test compounds are performed by the CellTiter-Glo Luminescent Cell Viability Assay and calculate the proliferation inhibitory activity of compound with different concentrations. CellTiter-Glo Luminescent Cell Viability Assay is purchased from Promega. Fit the data of proliferation inhibitory activity against A431 and H1975 of compounds with different concentrations with 4-parameter equation.
# A431 cell = assay: Proliferation inhibition, A431 cells (CellTiter-Glo); format: cell-based; settings: Homo sapiens, A-431, 48 hours
# Experimental: as §1
# EGFR tyrosine kinase = target: T1, EGFR tyrosine kinase (Homo sapiens, UniProt P00533); assay: HTRF assay, inhibition of EGFR tyrosine kinase; format: biochemical; settings: HTRF method
# T1 construct: purchased Sigma Aldrich
# T1 sequence (P00533 25-1210): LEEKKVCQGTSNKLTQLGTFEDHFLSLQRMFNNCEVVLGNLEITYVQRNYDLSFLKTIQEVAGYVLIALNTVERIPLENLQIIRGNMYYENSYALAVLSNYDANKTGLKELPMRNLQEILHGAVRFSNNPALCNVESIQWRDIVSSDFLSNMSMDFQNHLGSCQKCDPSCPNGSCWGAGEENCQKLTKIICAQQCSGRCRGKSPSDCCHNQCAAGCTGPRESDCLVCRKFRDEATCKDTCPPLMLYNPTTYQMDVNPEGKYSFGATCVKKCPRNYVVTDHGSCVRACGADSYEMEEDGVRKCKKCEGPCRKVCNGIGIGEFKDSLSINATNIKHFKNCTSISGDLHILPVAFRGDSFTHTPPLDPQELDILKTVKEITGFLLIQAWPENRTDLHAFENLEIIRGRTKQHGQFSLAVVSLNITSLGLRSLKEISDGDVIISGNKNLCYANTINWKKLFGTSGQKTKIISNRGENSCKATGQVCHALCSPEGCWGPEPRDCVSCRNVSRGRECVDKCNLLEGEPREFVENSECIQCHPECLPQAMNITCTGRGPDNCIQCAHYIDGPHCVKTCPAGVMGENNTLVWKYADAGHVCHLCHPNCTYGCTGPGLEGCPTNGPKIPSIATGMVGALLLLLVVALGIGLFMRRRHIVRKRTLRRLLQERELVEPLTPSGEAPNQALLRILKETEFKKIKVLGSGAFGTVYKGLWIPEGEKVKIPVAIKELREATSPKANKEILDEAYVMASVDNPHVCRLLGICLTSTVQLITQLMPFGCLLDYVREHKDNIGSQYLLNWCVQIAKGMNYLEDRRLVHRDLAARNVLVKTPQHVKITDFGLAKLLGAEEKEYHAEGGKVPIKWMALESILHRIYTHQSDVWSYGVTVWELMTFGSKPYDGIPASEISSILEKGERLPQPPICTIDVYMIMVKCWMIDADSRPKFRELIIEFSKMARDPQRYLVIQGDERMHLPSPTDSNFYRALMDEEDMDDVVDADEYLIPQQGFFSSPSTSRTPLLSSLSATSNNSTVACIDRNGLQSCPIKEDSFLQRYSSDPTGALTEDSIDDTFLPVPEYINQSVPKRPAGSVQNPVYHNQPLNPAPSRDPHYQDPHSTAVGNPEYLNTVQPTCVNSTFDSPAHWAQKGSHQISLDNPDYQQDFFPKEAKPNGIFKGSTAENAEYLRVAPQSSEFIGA
# Experimental: The activity of inhibitory against the kinase of the test compound is expressed by IC50. The assays are performed by Homogeneous time-resolved fluorescence (HTRF) method which is as follows: a series of synthesized analogues with gradient concentration are incubated for 5 minutes in enzymatic solution with specific concentration (for EGFR) at room temperature. Then proper amount of substrate and ATP are added into the reaction mixture to start the enzyme reaction. The assays of the specific concentration of compound is measured by Flexstation III of Molecular device company after the stop buffer and detecting liquid are added to the enzyme reaction system and hatch at room temperature for 1 hour. And the activity of inhibitory against the kinase of the test compound with different concentration will be calculated, then according to the 4-parameter equation, fit the inhibitory activity of the test compound with different concentration to get the IC50. EGFR is purchased from Sigma Aldrich. The HTRF KinEASE-TK is purchased from Cisbio Bioassays. ATP is purchased from Sigma Aldrich.
compound,measurement,setting,value
"C=C(F)C(=O)Nc1cc2c(Nc3ccc(F)c(Cl)c3)ncnc2cc1OC1CCN(C)C1 (stereo in doubt) [Compound 64, (S)-N-[4-(3-chloro-4-fluoro-phenylamino)-7-(1-methyl-pyrrolidin-3-yloxy)-quinazolin-6-yl]-2-fluoro-acrylamide]",IC50,[1],2.7 µM
same,IC50,A431 cell,3.6 µM
same,IC50,EGFR tyrosine kinase,4.5 nM
"COc1cc2ncnc(Nc3ccc(F)c(Cl)c3)c2cc1NC(=O)/C(F)=C/CN1CCCCC1 [Compound 8-1, (Z)—N-(4-((3-chloro-4-fluorophenyl)amino)-7-methoxyquinazolin-6-yl)-2-fluoro-4-(piperidin-1-yl)but-2-enamide]",IC50,[1],1 µM
"COc1cc2ncnc(Nc3ccc(F)c(Cl)c3)c2cc1NC(=O)/C(F)=C\CN1CCCCC1 [Compound 8-2, (E)-N-(4-((3-chloro-4-fluorophenyl)amino)-7-methoxyquinazolin-6-yl)-2-fluoro-4-(piperidin-1-yl)but-2-enamide]",IC50,A431 cell,2.1 µM
"CCOc1cc2ncnc(Nc3ccc(OCc4ccccn4)c(Cl)c3)c2cc1NC(=O)/C(F)=C/CN(C)C [Compound 19-1, (Z)-N-(4-((3-chloro-4-(pyridin-2-ylmethoxy)phenyl)amino)-7-ethoxyquinazolin-6-yl)-4-(dimethylamino)-2-fluorobut-2-enamide]",IC50,EGFR tyrosine kinase,0.57 nM
"CCOc1cc2ncnc(Nc3ccc(OCc4ccccn4)c(Cl)c3)c2cc1NC(=O)/C(F)=C\CN(C)C [Compound 19-2, (E)-N-(4-((3-chloro-4-(pyridin-2-ylmethoxy)phenyl)amino)-7-ethoxyquinazolin-6-yl)-4-(dimethylamino)-2-fluorobut-2-enamide]",IC50,[1],1.1 µM
same,IC50,EGFR tyrosine kinase,0.89 nM
"O=C(Nc1cc2c(Nc3ccc(F)c(Cl)c3)ncnc2cc1O[C@H]1CCOC1)/C(F)=C/CN1CCOCC1 [Compound 20-1, (S,Z)-N-(4-((3-chloro-4-fluorophenyl)amino)-7-((tetrahydrofuran-3-yl)oxy)quinazolin-6-yl)-2-fluoro-4-morpholinobut-2-enamide]",IC50,[1],4.3 µM
same,IC50,A431 cell,12 µM
"O=C(Nc1cc2c(Nc3ccc(F)c(Cl)c3)ncnc2cc1O[C@H]1CCOC1)/C(F)=C\CN1CCOCC1 [Compound 20-2, (S,E)-N-(4-((3-chloro-4-fluorophenyl)amino)-7-((tetrahydrofuran-3-yl)oxy)quinazolin-6-yl)-2-fluoro-4-morpholinobut-2-enamide]",IC50,[1],2.3 µM
same,IC50,A431 cell,> 100 µM
"CN(C)C/C=C(\F)C(=O)Nc1cc2c(Nc3ccc(F)c(Cl)c3)ncnc2cc1O[C@H]1CCOC1 [Compound 21-1, (S,Z)-N-(4-((3-chloro-4-fluorophenyl)amino)-7-((tetrahydrofuran-3-yl)oxy)quinazolin-6-yl)-4-(dimethylamino)-2-fluorobut-2-enamide]",IC50,[1],1.2 µM
same,IC50,A431 cell,98 µM
same,IC50,EGFR tyrosine kinase,0.16 nM
"CN(C)C/C=C(/F)C(=O)Nc1cc2c(Nc3ccc(F)c(Cl)c3)ncnc2cc1O[C@H]1CCOC1 [Compound 21-2, (S,E)-N-(4-((3-chloro-4-fluorophenyl)amino)-7-((tetrahydrofuran-3-yl)oxy)quinazolin-6-yl)-4-(dimethylamino)-2-fluorobut-2-enamide]",IC50,[1],1.5 µM
same,IC50,A431 cell,3.1 µM
same,IC50,EGFR tyrosine kinase,0.31 nM
"C=C(F)C(=O)Nc1cc2c(Nc3cc(OC)c(Cl)cc3Cl)ncnc2cc1OCCCN1CCOCC1 [Compound 27, N-[4-(2,4-dichloro-5-methoxy-phenylamino)-7-(3-morpholin-4-yl-propoxy)-quinazolin-6-yl]-2-fluoro-acrylamide]",IC50,[1],2.7 µM
"C=C(Cl)C(=O)Nc1cc2c(Nc3ccc(F)c(Cl)c3)ncnc2cc1OCCCN1CCOCC1 [Compound 41, N-[4-(3-chloro-4-fluoro-phenylamino)-7-(3-morpholin-4-yl-propoxy)-quinazolin-6-yl]-2-chloro-acrylamide]",IC50,EGFR tyrosine kinase,0.37 nM
"C=C(F)C(=O)Nc1cc2c(Nc3ccc(F)c(Cl)c3)ncnc2cc1OC1CCN(C)CC1 [Compound 49, N-[4-(3-chloro-4-fluoro-phenylamino)-7-(1-methyl-piperidin-4-yloxy)-quinazolin-6-yl]-2-fluoro-acrylamide]",IC50,[1],5.6 µM
same,IC50,A431 cell,8.6 µM
